The values below come from PubChem BioAssay (NCI).

Common to all, as to test: NCI tumour cell line growth inhibition, 48 h
Test [1] deals with HCT-116 colon.
Test [2] concerns HOP-62 NSCLC.
Test [3] deals with SW-620 colon.
Test [4] has as its system 786-0 renal.
In test [5] the test system is CCRF-CEM leukemia.
In test [6] the test system is NCI-H460 lung.
Test [7] has as its system SN12C renal.
Test [8] deals with OVCAR-5 ovarian.
The test system of test [9] is MALME-3M melanoma.

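Compound exposure: 48 hours, 5 concentrations, 96-well plates. GI50: concentration for 50% inhibition of growth. At the TGI there is no net growth.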 Where only a bound is given, the exact number is not on record here.

For `CN(C)N=Nc1ccc(S(N)(=O)=O)cc1`, the TGI in test [1], in [2], in test [3], in [4], in test [5] and in [6] was above 100 µM in each case. Further, the TGI in [7], in [8] and in test [9] was above 100 µM in each case.
With `O=C1/C(=C/c2ccc(C(F)(F)F)cc2)COc2ccc(O)c(O)c21`, the GI50 in [1] was 1.35 µM; in test [2], 1.65 µM; in test [4], 1.32 µM; in [5], 0.335 µM; in [6] it was 1.85 µM; in test [7], 1.15 µM. Further, the GI50 in test [8] is 1.6 µM; in test [9], 1.55 µM. Moreover, the TGI in [1] was found to be 3.12 µM; in [2] it was 3.41 µM; in [4], 2.85 µM; in [5], 2.25 µM; in [6] it was 3.9 µM; in test [7], 2.5 µM. Moreover, the results for the TGI in test [8] and in test [9] were 3.09 µM and 3.3 µM, respectively.
For `CSc1nnc(C(C#N)C#N)nn1`, the TGI in test [1], in [2], in [3], in test [4], in test [5] and in test [6] was above 100 µM throughout. For the same compound, the TGI in [7], in test [8] and in test [9] was above 100 µM in each case.
As to `CC(=O)C1C(=O)C(=O)N(CCN2C(=O)C(=O)C(C(C)=O)C2=O)C1=O` (centres undefined), the TGI in [1], in [2], in [3], in test [4], in [6] and in test [7] was above 100 µM in each case. The TGI in test [8] and in test [9] was above 100 µM each time.
With `CCOC(=O)C1C(=O)CC(=O)C2CCCCC21` (centres undefined), the TGI in test [1], in [2], in test [3], in test [4], in test [5] and in test [6] was above 100 µM in each case. The TGI in test [7], in test [8] and in [9] was above 100 µM throughout.
With `COc1ccc2c(c1)[n+]([O-])c(-c1ccccc1Cl)c(N)[n+]2[O-]`, the TGI in [1], in test [2], in test [3], in test [4], in test [6] and in test [7] was above 100 µM each time. In addition, the TGI in test [8] and in test [9] was above 100 µM in each case.
On to `CCN(CC)c1c(C)nnn1C1OC(COC(C)=O)C(OC(C)=O)C(OC(C)=O)C1OC(C)=O` (centres undefined), for which the TGI in test [1] is above 100 µM; in test [2], above 100 µM; in test [3], 31.3 µM; in test [4], above 100 µM; in [5], above 100 µM; in test [6], above 100 µM. Moreover, the TGI in test [7], in test [8] and in [9] was above 100 µM each time.
Consider `COc1cc(O)c(C(=O)/C=C/c2ccc(OC)c(OCc3ccccc3)c2)c(OC)c1`, for which the TGI in test [1], in test [2], in test [3], in test [4], in test [5] and in [6] was above 100 µM in each case. Also, the TGI in test [7] and in [8] was above 100 µM in each case.
For the compound `O=C(CCc1ccccc1)CC1OC(=O)C(Cl)=C1Cl` (centres undefined), the TGI is 28 µM in [1]; 55.6 µM in [2]; 25.1 µM in test [3]; 37.5 µM in test [4]; above 100 µM in [5]; 96.2 µM in [6]. Further, the TGI in [7] was found to be 38.3 µM; in test [8], 35 µM; in [9], 33.1 µM.
Regarding `Cc1[nH]c2cc([N+](=O)[O-])ccc2c1[N+](=O)[O-]`, the TGI in test [2] is 32.8 µM; in test [3], 97.9 µM; in test [4], above 100 µM; in test [5], 64.6 µM; in test [6] it was 70.3 µM; in test [7], 95 µM. In addition, the TGI in test [8] was found to be 79 µM; in test [9], 54.4 µM.
Consider `Cc1ccc(S(=O)(=O)NNS(C)(=O)=O)cc1`, for which the TGI in test [1], in test [2], in test [3], in test [4], in [5] and in test [6] was above 100 µM in each case. Also, the TGI in test [7] and in [9] was above 100 µM throughout.
As for `N#Cc1ccc(C2SCc3nc4ccccc4n32)cc1` (centres undefined), the TGI in test [1], in test [2], in test [3], in [4], in test [5] and in [6] was above 100 µM throughout. Moreover, the TGI in [7] and in test [9] was above 100 µM each time.
Turning to `CCN(CC)C(=S)SS(C)(=O)=O`, the TGI was found to be 43.1 µM in test [1]; 40.2 µM in [2]; 35.2 µM in test [3]; 33.3 µM in [4]; 29.9 µM in [7]; 42.2 µM in test [8]. The same compound came in with a TGI in test [9] of 58.4 µM.
On to `N#CC(/C(CCCC(=O)Nc1cccc([N+](=O)[O-])c1)=N\NC(=O)c1c(O)ccc2ccccc12)c1nc2ccccc2s1` (centres undefined), for which the TGI in test [1] is above 100 µM; in [2] it was 95.4 µM; in test [3], above 100 µM; in [4], above 100 µM; in [5], above 100 µM; in test [6], above 100 µM. For the same compound, the TGI in [7], in test [8] and in test [9] was above 100 µM each time.
Regarding `COc1ccc(C(=O)C(C(=O)C(=O)NCCCNC(=O)C(=O)C(C(=O)c2ccc(OC)cc2)c2ccc(OC)cc2)c2ccc(OC)cc2)cc1` (centres undefined), the TGI in [1], in test [2], in [3], in test [4], in test [5] and in [6] was above 100 µM each time. The TGI in test [8] and in [9] was above 100 µM in each case.
Regarding `COC1/C(=C\C(C)=O)c2ccccc2N1C(C)=O` (centres undefined), the TGI in [1], in [2], in [3], in [4], in test [5] and in test [6] was above 100 µM in each case. Besides, the TGI in [7] was above 100 µM.
Take `Cc1ccc(S(=O)(=O)C2CC2(Cl)Cl)cc1` (centres undefined): the TGI in test [1] is 44.7 µM; in test [3] it was 44.1 µM; in test [4] it was 43.3 µM; in [5], 35 µM; in [6], above 100 µM; in test [7] it was 35.8 µM. For the same compound, the TGI in [8] was above 100 µM; in test [9], 48.8 µM.
For the compound `O=C(N/C(=C\c1ccc(/C=C(\NC(=O)c2ccccc2)c2nc3c(O)nc(S)nc3[nH]2)cc1)c1nc2c(O)nc(S)nc2[nH]1)c1ccccc1`, the TGI in [1], in [2], in test [3], in [4], in [5] and in test [6] was above 100 µM in each case. Besides, the TGI in [7], in test [8] and in test [9] was above 100 µM throughout.
Turning to `CC1=C2C=CC(=O)C[C@@]2(C)CCC1`, the TGI in [1], in [2], in test [3], in test [4], in test [5] and in test [6] was above 100 µM in each case. Further, the TGI in [7], in test [8] and in test [9] was above 100 µM throughout.
With `S=C(SSC(=S)N1CCCCC1)N1CCCCC1`, the GI50 in [2] was 28.4 µM; in test [3], 13.4 µM; in test [4] it was 14.5 µM; in [5], 8.18 µM; in test [6], 10.9 µM; in test [7], 17.2 µM. Besides, the GI50 in [8] was 14.6 µM; in [9] it was 16.4 µM. Further, the TGI is above 100 µM in test [2]; 26.9 µM in [3]; 28.9 µM in test [4]; 58.3 µM in [5]; 41.5 µM in test [6]; 50.4 µM in [7]. In addition, the figures for the TGI in test [8] and in test [9] were 27.9 µM and 50.4 µM, respectively.
Consider `CCN(CC)c1ccc(C2N3CCCCC3[C@@H]3c4[nH]c5ccccc5c4CCN23)cc1` (some centres undefined), for which the TGI in test [1] was 33.9 µM; in test [2], above 100 µM; in test [3] it was above 100 µM; in test [4], above 100 µM; in [5] it was 63.9 µM; in [6], 55.5 µM. The TGI in test [7] was 51.6 µM; in [8], above 100 µM; in [9], 47.4 µM.
Consider `Cc1cc(Br)ccc1N=Nc1c(C)nn(-c2ccccc2)c1-c1ccccc1`, for which the TGI in test [1], in test [2], in test [3], in test [4], in test [5] and in test [6] was above 100 µM in each case. Further, the TGI in test [7], in test [8] and in test [9] was above 100 µM each time.
With `CC(=O)CC(=O)Nc1ccccc1C(F)(F)F`, the TGI in [1], in test [2], in [3], in [4], in test [5] and in test [6] was above 100 µM in each case. In addition, the TGI in test [7], in [8] and in test [9] was above 100 µM throughout.
For the compound `CSc1ccc(C(=O)/C=C/c2ccc(Cl)cc2Cl)cc1`, the GI50 in test [1] was 3.91 µM; in test [2], 19.6 µM; in test [3] it was 22.2 µM; in [4], 16.9 µM; in test [6], 26.3 µM; in test [7], 42.9 µM. The GI50 in test [8] was 21.6 µM; in test [9], 29.1 µM. In addition, the TGI in [1] is 14.9 µM; in test [2], 37.5 µM; in [3], 56 µM; in test [4] it was 36.2 µM; in [6], 96.4 µM; in test [7] it was above 100 µM. In addition, the TGI in [8] was 52.2 µM; in [9], above 100 µM.
Take `O=C1C(Cl)=C(NCCCN(CCCNC2=C(Cl)C(=O)c3ccccc3C2=O)C2=C(Cl)C(=O)c3ccccc3C2=O)C(=O)c2ccccc21`: the GI50 is 3.8 µM in [2]; 2.21 µM in test [3]; 4.62 µM in [4]; 3.34 µM in test [5]; 3.02 µM in [6]; 1.51 µM in test [7]. In addition, the results for the GI50 in test [8] and in test [9] were 4.85 µM and 1.62 µM, respectively. In addition, the TGI in test [2] was 42.3 µM; in [3], 4.9 µM; in [4] it was 18.2 µM; in test [5], above 100 µM; in test [6], above 100 µM; in test [7] it was 3.51 µM. In addition, the TGI in test [8] worked out at 17.2 µM; in test [9], 3.29 µM.
On to `CC(=O)[CH-]C(=O)c1ccccc1.CC(=O)[CH-]C(=O)c1ccccc1.CC(=O)[CH-]C(=O)c1ccccc1.[Ga+3]`, for which the GI50 in test [1] was 15.5 µM; in [2] it was 29 µM; in test [3], 23 µM; in test [4], 18.2 µM; in test [5], 4.39 µM; in test [6] it was 11.8 µM. In addition, the GI50 in [7] was 15 µM; in test [8] it was 26.5 µM; in test [9], 2.61 µM. Further, the TGI worked out at 29.8 µM in [1]; 60.9 µM in test [2]; 55.8 µM in test [3]; 37.1 µM in [4]; 35.7 µM in test [5]; 28.7 µM in test [6]. The figures for the TGI in test [7], in [8] and in test [9] were 33.2 µM, 66.8 µM and 19.5 µM, respectively.
